# Measurements published in patent publication US20210142173A1, “NETWORK-BASED DEEP LEARNING TECHNOLOGY FOR TARGET IDENTIFICATION AND DRUG REPURPOSING” (THE CLEVELAND CLINIC FOUNDATION, priority 2019, published 2021).
# Several values for one entry are separate records, joined by “and”; a condition that tells them apart may be missing. Equal entries are not always repeated. Where two headings read alike, the source gives them in different places.
# Tests used:
# human RORγt = target: T1, human RORγt (Homo sapiens, UniProt P51449); assay: Cell-based GAL4-RORγt luciferase reporter assay in HEK293T cells; settings: for inhibition at 10 µM: HEK-293T
# T1 construct: expressed in transfected cells; host or cells: HEK293T
# T1 sequence (P51449 269-508 limits assumed): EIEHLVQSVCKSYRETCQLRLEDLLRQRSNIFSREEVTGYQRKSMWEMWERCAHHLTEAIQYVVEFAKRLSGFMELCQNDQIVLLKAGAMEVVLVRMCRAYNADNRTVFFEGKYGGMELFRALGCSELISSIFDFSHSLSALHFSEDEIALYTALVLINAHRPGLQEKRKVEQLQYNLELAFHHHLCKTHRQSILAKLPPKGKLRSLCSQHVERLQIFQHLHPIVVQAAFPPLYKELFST
# Description: FIG. 7A is a graph showing the inhibitory rate of various drugs as predicted by an example deep learning network system. […] In total, 18 purchasable drugs for RORγt were tested using a cell-based luciferase reporter assay. In this assay, GAL4-RORγt, with fused human RORγt LBD and GAL4 DNA binding domain are co-transfected into HEK293T cells with a luciferase reporter gene harboring the GAL4 response element33.
# DRD2 = DRD2 (Homo sapiens, UniProt P14416); settings: published experimental data; cited from earlier work
# Sequence of DRD2 (P14416 whole entry): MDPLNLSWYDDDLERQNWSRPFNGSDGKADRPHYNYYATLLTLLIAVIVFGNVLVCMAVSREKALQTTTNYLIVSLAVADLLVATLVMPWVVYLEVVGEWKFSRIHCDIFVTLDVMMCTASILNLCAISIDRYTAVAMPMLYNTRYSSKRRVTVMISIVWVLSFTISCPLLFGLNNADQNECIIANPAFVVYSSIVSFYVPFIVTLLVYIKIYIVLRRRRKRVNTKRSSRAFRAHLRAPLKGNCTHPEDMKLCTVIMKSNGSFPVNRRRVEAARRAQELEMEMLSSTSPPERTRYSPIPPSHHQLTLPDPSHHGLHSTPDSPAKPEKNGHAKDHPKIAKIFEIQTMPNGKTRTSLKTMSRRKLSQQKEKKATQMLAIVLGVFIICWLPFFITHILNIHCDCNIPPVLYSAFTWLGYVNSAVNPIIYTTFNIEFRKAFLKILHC
# ADRA2A = target: T2, ADRA2A (Homo sapiens, UniProt P08913); settings: published experimental data; cited from earlier work
# T2 sequence (P08913 1-465): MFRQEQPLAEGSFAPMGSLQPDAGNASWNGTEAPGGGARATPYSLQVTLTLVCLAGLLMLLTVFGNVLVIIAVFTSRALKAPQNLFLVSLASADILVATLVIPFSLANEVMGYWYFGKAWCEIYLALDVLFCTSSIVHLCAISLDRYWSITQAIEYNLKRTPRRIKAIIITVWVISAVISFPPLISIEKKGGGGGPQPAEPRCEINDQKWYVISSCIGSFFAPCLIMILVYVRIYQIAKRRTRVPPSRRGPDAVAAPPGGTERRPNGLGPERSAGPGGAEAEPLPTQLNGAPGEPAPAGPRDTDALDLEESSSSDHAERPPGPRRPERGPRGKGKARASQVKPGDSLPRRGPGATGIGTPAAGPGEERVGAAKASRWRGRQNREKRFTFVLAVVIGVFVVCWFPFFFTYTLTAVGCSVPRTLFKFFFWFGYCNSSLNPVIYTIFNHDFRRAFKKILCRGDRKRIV
# firefly luciferase = firefly luciferase (Photinus pyralis, UniProt P08659); assay: Control firefly luciferase activity experiment; assay type: cell-based; settings: control experiment for promiscuous effects on luciferase
# Sequence of firefly luciferase (P08659 whole entry): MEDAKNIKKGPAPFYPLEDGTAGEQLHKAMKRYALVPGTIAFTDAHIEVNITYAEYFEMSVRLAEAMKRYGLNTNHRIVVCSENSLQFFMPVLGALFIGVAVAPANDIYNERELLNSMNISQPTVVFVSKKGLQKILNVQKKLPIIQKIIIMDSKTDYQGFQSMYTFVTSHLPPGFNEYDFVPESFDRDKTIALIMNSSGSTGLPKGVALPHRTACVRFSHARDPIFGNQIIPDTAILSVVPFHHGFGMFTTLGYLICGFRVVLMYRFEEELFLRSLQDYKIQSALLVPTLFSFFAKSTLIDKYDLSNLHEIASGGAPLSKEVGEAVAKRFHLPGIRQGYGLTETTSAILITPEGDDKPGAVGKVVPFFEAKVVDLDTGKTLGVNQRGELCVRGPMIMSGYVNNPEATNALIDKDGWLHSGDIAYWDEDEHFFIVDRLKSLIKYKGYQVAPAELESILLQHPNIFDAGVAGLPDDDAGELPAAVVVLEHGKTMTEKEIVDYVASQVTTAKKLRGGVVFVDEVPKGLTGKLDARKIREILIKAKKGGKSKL
# Description: (§1) FIG. 7B is a graph showing the inhibitory rate as a function of topotecan concentration. […] FIG. 7C is a graph showing the effect of topotecan on fluorescence intensity. […] FIG. 7D is a graph showing the effect of topotecan on cell viability.
# EAE mice = assay: Experimental autoimmune encephalomyelitis (EAE) model; assay type: in vivo, C57BL/6 mice
# Description: FIG. 8A is a schedule of the application of an experimental autoimmune encephalomyelitis (EAE) model. EAE is a most frequently used experimental animal model for human multiple sclerosis. To investigate the therapeutic potential of topotecan in multiple sclerosis, EAE was induced in C57BL/6 mice by active immunization with […] in complete Freund's adjuvant (CFA) followed by pertussis toxin administration, according to the application schedule shown in FIG. 8A. Topotecan (10 mg/kg) or vehicle (sterile water, control) was administered intraperitoneally every four days during the course of EAE. Disease severity was assessed and graded using a five-point scoring system for 15 days.
# During the course of EAE, changes in body weight also reflect disease severity. FIG. 8C is a graph showing weight loss in miss after the application of topotecan during EAE.
# Multiple sclerosis is a chronic demyelinating disease accompanied by blood-brain barrier disruption. Near-infrared in vivo imaging is further utilized to evaluate the demyelination and blood-brain barrier leakage in EAE mice. A near-infrared fluorescent dye, 3, 3′-diethylthiatricarbocyanine iodide (DBT), easily enter into the brain and selectively binds to myelin fibers45. […] Cy5.5-BSA, a fluorescent BSA conjugate with bright near infrared fluorescence, penetrates the brain when the blood-brain barrier is disrupted.
# T helper 17 (Th17) cells are a highly pro-inflammatory lineage of T helper cells defined by their production of interleukin 17 (IL-17)46. RORγt is necessary and sufficient for cytokine IL-17 expression in mouse and human Th17 cells46. Given the inhibitory effects of topotecan against RORγt, it was investigated whether topotecan affects IL-17 expression in EAE mice.
# [1] = Pharmacokinetics after intraperitoneal injection in mice; assay type: in vivo
# Description: Where Cmax is the peak concentration, Tmax is the time between administration and reaching Cmax, and t1/2 is the elimination half-life.
# [2] = tested on: normal cell lines or other mice organs; assay: Toxicity on normal cell lines or mice organs
# Description: Accordingly, as predicted by the systems and methods presented herein, topotecan is a good drug candidate in possible treatment of MS.
# RORγt = target: T3, RORγt (Mus musculus, UniProt P51450); assay: Target occupancy in mouse brain with tracer T0901317; assay type: in vivo, mice
# T3 construct: Concentration of T0901317 in mice brain samples; from tissue; host or cells: mouse brain
# T3 sequence (P51450 1-495 isoform P51450-2): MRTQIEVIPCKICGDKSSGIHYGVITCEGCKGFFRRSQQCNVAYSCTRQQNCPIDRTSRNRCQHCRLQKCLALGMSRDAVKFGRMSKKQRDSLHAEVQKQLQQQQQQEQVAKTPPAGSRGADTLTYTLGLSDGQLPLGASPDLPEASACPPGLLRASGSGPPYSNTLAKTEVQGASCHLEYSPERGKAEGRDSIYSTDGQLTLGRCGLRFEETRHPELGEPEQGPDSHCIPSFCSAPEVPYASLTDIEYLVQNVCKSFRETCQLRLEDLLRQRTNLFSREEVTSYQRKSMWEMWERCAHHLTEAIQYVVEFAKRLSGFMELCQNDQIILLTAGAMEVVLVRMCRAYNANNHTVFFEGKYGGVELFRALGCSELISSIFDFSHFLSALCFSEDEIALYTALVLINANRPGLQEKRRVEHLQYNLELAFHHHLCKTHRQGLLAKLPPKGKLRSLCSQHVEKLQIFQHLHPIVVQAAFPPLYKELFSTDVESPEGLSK
# Description: In the data presented in Table 2, T0901317, an orthosteric ligand of RORγt, was used as the tracer for assessing target occupancy of TPT. A Student's t-test was performed to obtain the p-value, and sterile water was used as vehicle.
# RORγt-LBD [3] = target: T4, RORγt-LBD (Homo sapiens, UniProt P51449); assay: Circular dichroism (CD) spectrum of RORγt; assay type: binding
# T4 sequence (P51449 269-508 limits assumed): T1 sequence (P51449 269-508 limits assumed)
# Description: FIG. 7F is a graph illustrating how topotecan alters the variation of circular dichroism (CD) spectrum of RORγt. CD is a powerful method for probing protein and ligand interactions in solution. […] FIG. 7G is a graph plotting CD Signal as a function of wavelength. […] FIG. 7H is an illustration showing how topotecan interacts with multiple important residues on human RORγt. The binding mode of topotecan to human RORγt is examined using molecular docking. […] Put together, by combining information gleaned from the deep learning network model and experimental assays, topotecan is identified as a novel, direct inhibitor of human RORγt.
# RORγt-LBD [4] = target: T4, RORγt-LBD; assay: HPLC direct interaction with RORγt-LBD; assay type: binding
# HEK293T cells = assay: HEK293T cell viability; assay type: cell-based, human; settings: same concentration range as in the reporter assay
# Description: as §1
# [5] = target: retinoid X receptor α LBD (RXRα-LBD) (Homo sapiens, UniProt P19793); assay: HPLC direct interaction with RXRα-LBD; assay type: binding
# Sequence of retinoid X receptor α LBD (RXRα-LBD) (P19793 227-458 limits assumed, species assumed): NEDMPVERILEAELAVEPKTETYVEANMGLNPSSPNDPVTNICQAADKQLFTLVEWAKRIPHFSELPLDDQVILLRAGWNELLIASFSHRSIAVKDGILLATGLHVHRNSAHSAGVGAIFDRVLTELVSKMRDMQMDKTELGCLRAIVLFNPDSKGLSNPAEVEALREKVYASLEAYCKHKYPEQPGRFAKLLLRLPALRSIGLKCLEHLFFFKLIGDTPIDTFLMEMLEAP
# RORγt-LBD [6] = target: T4, RORγt-LBD; assay: HTRF coactivator (SRC-1 peptide) recruitment assay; assay type: biochemical; settings: read-out: IC50 (disruption of RORγt-LBD interaction with SRC-1 cofactor peptide)
# Description: Nuclear receptors execute their versatile transcriptional functions by recruiting positive and negative regulatory proteins, known as coactivators or corepressors, respectively. Agonists promote interactions between nuclear receptors and coactivators, while antagonists either inhibit coactivator binding or facilitate corepressor recruitment. The functional change of the binding of topotecan on RORγt is investigated by utilizing a HTRF assay to evaluate ligand-induced coactivator recruitment to RORγt.
# FIG. 7E is another graph showing the inhibitory rate of topotecan as a function of concentration as predicted by an example deep learning network system.
# [7] = at a concentration of 10 μM, GAL4-RORγt HEK293T luciferase reporter, read-out: inhibitory rate
# [8] = read-out: inhibitory rate, at a concentration of 10 μM, GAL4-RORγt HEK293T luciferase reporter
# [9] = 10 mg/kg intraperitoneally every four days
# [10] = mouse, ip, brain, intraperitoneal injection in mice
# [11] = mouse, ip, plasma, intraperitoneal injection in mice
smiles,measurement,setting,value
CC(C)(Oc1ccc(CCNC(=O)c2ccc(Cl)cc2)cc1)C(=O)O [bezafibrate],inhibition at 10 µM,human RORγt; [7],> 30%
CC(CCc1ccc(O)cc1)NCCc1ccc(O)c(O)c1 (stereo not drawn) [dobutamine],IC50,DRD2,8.22 µM
same,IC50,ADRA2A,10.8 µM
C#C[C@]1(O)CC[C@H]2[C@@H]3CCC4=CC(=O)CC[C@@H]4[C@H]3CC[C@@]21C [norethindrone],inhibition at 10 µM,human RORγt; [8],> 30%
CN(CCOc1ccc(CC2SC(=O)NC2=O)cc1)c1ccccn1 (stereo not drawn) [rosiglitazone],inhibition at 10 µM,human RORγt; [7],> 30%
CC(=O)S[C@@H]1CC2=CC(=O)CC[C@]2(C)[C@H]2CC[C@@]3(C)[C@@H](CC[C@@]34CCC(=O)O4)[C@H]12 [spironolactone],inhibition at 10 µM,human RORγt; [8],> 30%
CCOC(=O)c1ccc(C#Cc2ccc3c(c2)C(C)(C)CCS3)nc1 [tazarotene],inhibition at 10 µM,human RORγt; [7],> 30%
CC[C@@]1(O)C(=O)OCc2c1cc1n(c2=O)Cc2cc3c(CN(C)C)c(O)ccc3nc2-1 [topotecan],suppression of control firefly luciferase activity,firefly luciferase,no suppression is observed
same,EAE induced body weight loss,EAE mice; [9],more tolerable to EAE induced body weight loss than vehicle-treated mice
same,onset of clinical symptoms,EAE mice; [9],significantly delay in the onset of clinical symptoms
same,clinical score,"EAE mice; 10 mg/kg intraperitoneally every four days, five-point scoring",observable reduction of clinical score
same,IL-17 production in brain and spinal cords,EAE mice; ELISA,significantly reduces IL-17 production
same,demyelination in white matter (LFB staining),EAE mice; day 20 after immunization,demyelination is significantly reversed
same,infiltration of leukocytes in spinal cord (H&E staining),EAE mice; day 20 after immunization,infiltration is largely reduced
same,DBT near-infrared fluorescence (myelin imaging),EAE mice; near-infrared in vivo imaging,reverses fluorescence
same,accumulation of Cy5.5-BSA fluorescent probe in the brain (blood-brain barrier leakage),EAE mice; near-infrared in vivo imaging,higher accumulation of the fluorescent probe in the brain of vehicle treated mice as compared to the topotecan treatment group
same,brain penetration,[1]; mouse models,ideal brain penetration
same,AUC(0-inf),[1]; [10],173 ng·h/mL
same,AUC(0-t),[1]; [10],170 ng·h/mL
same,Cmax,[1]; [10],121 ng/mL
same,Tmax,[1]; [10],30 min
same,AUC(0-inf),[1]; [11],3310 ng·h/mL
same,AUC(0-t),[1]; [11],3280 ng·h/mL
same,Cmax,[1]; [11],3250 ng/mL
same,Tmax,[1]; [11],30 min
same,half-life,[1]; [11],289 min
same,toxicity on normal cell lines or other mice organs,[2],very low toxicity
same,Concentration of T0901317 in mice brain samples,"RORγt; individual mice 1-5, TPT-treated, tracer T0901317, listed as TPT",2788.48 ng/g and 4396.96 ng/g and 3365.97 ng/g and 3736.16 ng/g and 3212.96 ng/g
same,"Concentration of T0901317 in mice brain samples, Mean","RORγt; mean of 5 TPT-treated mice, vehicle mean 4426.55, P-value 0.0029",3500.11 ng/g
same,IC50,"human RORγt; GAL4-RORγt expressing HEK293T cells, read-out: IC50 (antagonistic activity)",0.43 ± 0.02 µM
same,inhibitory rate,"human RORγt; at a concentration of 10 μM, GAL4-RORγt HEK293T luciferase reporter, 10 µM",71.0%
same,change of CD spectrum of RORγt (direct binding),RORγt-LBD [3],alters the variation of CD spectrum of RORγt
same,direct interaction by HPLC,RORγt-LBD [4],directly interacts with RORγt-LBD
same,effect on HEK293T cell viability,HEK293T cells,minor effect
same,direct interaction by HPLC,[5],not with retinoid X receptor α LBD
same,IC50,RORγt-LBD [6],6.65 ± 0.02 µM
